Source: patent publication US8466311B2, “Neuroprotective compositions and methods” (Sanford-Burnham Medical Research Institute, priority 2006, dated 2013)

Experiments:
MCAO/reperfusion injury = test: Focal cerebral ischemia: MCAO/reperfusion in mice; assay type: in vivo, mouse
Method: Focal cerebral ischemia and reperfusion. The filament model of middle cerebral artery occlusion (MCAO)/reperfusion was used as described (Gu et al., Science 297:1186-1190, 2002; see Supporting Methods in Supporting Text).
NEPP11 or vehicle was injected intraperitoneally (i.p.) 1 h before and 4 h after MCAO. The area of brain infarction (corrected for possible edema) was assessed on coronal sections from vehicle- and NEPP11-treated mice stained with 2.5% 2,3,5-triphenyltetrazolium chloride 24 h after the onset of reperfusion.
Focal Cerebral Ischemia and Reperfusion. NEPP11 was injected at 100 mg/ml in a 7.5% solution of DMSO in PBS; controls received the diluent alone. The investigator was blinded as to the treatment group. The injected volume was 10 ml/g of body weight, corresponding to 1 mg/kg. […] Other physiological parameters were monitored, including systemic blood pressure, glucose, and arterial blood gasses and pH. […] Occlusion and reperfusion of blood flow were monitored by laser Doppler flowmetry. […]
After the reperfusion period, the animals were killed. […] Areas of infarction occurred in the right middle cerebral artery territory of each brain slice and were quantified with a computerized image analysis system (NIH image 1.62) as described (Gu et al., Science 297:1186-1190, 2000). […]

[1] = system: thioredoxin and glutaredoxin; test: Expression of Trx and Grx genes in cortical cultures (RT-PCR); assay type: cell-based, rat; set-up: expression of the Trx and Grx genes: dose or concentration left out as unconfirmed
Method: One caveat to the mechanism of NEPP and other electrophilic compounds acting at the level of Keap1 to induce HO-1 transcription is that NEPP could potentially react indiscriminately with other thiol-containing compounds in cells. To approach this question, we assessed cellular glutathione (GSH) levels to determine whether NEPP11 would affect this abundant antioxidant thiol. Nepp11 or N-ethylmaleimide (NEM) was added at t=0 and levels of total GSH were measured at the indicated times. GSH content of control cortical cultures (set arbitrarily at 100%) was 46.8±4.5 nmol/mg protein. […] In fact, this scenario seems likely, because the Keap1/Nrf2 pathway regulates the expression of γ-GCL in addition to HO-1 (Itoh et al., Mol. Cell. Biol. 24:36-45, 2004). Besides GSH, cells have another major reduction pathway representing the thioredoxin-glutaredoxin system.
Lack of Effect of NEPP Compounds on Expression of Trx and Grx Genes. […]

cerebrocortical neurons = test: NMDA-induced neuronal cell death (excitotoxicity) in cerebrocortical cultures
Method: We stained the cultures with both anti-MAP-2 and anti-NeuN monoclonal antibodies to label neuronal dendrites and nuclei, respectively. Vehicle or NEPP11 (0.7 μM) was added to cerebrocortical cultures (E17 and DIV14-21) 60 min before treatment with NMDA (50 μM) for 15 min. The cultures were then incubated for 20 h and subsequently stained with anti-MAP-2 and anti-NeuN and with Hoechst dye. Apoptotic nuclei were identified by morphological changes seen with Hoechst staining. […] We also added zinc protoporphyrin (ZnPP, 10 μM), a relatively specific HO-1 antagonist, simultaneously with NEPP11. The number of apoptotic neurons was assessed by determining the apoptotic index [(number of condensed nuclei in MAP-2 or NeuN-positive cells)/(number of total MAP-2 or NeuN-positive cells)×100%], as reported by Bonfoco et al. (Proc. Natl. Acad. Sci. USA 92:7162-7166, 1995).
Cerebrocortical cultures were prepared from embryonic day-17 Sprague-Dawley rats and used at day 14-21 in vitro (DIV14-21), as described (Bonfoco et al., Proc. Natl. Acad. Sci. USA 92:7162-7166, 1995). To induce predominantly neuronal apoptosis (rather than necrosis), we exposed cortical cultures to 50 mM NMDA plus 5 mM glycine/1.8 mM CaCl2 in nominally Mg^2+-free Earle's balanced salt solution for 15 min (Bonfoco et al., Proc. Natl. Acad. Sci. USA 92:7162-7166, 1995). After exposure to NMDA, the cultures were returned to normal medium containing vehicle or NEPP11 and incubated for 20 hr before analyzing cell survival. To assess the ability of NEPP compounds to block NMDA-induced neuronal apoptosis, we identified apoptotic neurons by double immunofluorescence with anti-NeuN and anti-MAP-2 to specifically label neurons and with Hoechst staining for nuclear morphology to detect apoptosis. The percentage of neurons and non-neuronal cells in our cultures was 33.6±4.9% and 66.4±4.4% (n=4), respectively.
In addition, we used mature cortical cultures (E17, DIV21) to assess excitotoxicity because functional NMDA receptors are expressed on these neurons.

ARE = ARE luciferase reporter in cortical cultures; assay type: cell-based, rat
Method: Cortical cultures (E17, DIV21) were transfected with ARE-luciferase reporter gene DNA (1 μg/well) and co-transfected with pEF6 or pEFNrf2DN. CA (3 μM) or vehicle was then added to the cultures. After a 24-h incubation, cell lysates were used for luciferase reporter gene assays. Values are mean±SEM; *p<0.01 by ANOVA.
Next, transcriptional activation of the HO-1 promoter by NEPP was examined by reporter gene assays in primary neurons. Cortical cultures were transfected with reporter cDNAs (1 μg per well), and 0.7 μM NEPP11 was added to the cultures. After a 24 h incubation, cell lysates were subjected to luciferase reporter assays. […] If the Keap1/Nrf2 pathway, indeed, mediates activation of the HO-1 promoter by NEPP11, mutant Nrf2 protein should inhibit this activation. […] Moreover, the selective activation in neurons may explain the relatively small amplitude of total HO-1 activation seen in the mixed neuronal/glial culture system in which glia predominate.
Transient transfection and measurement of luciferase activity. PC12h cells or cerebrocortical cultures (E17, DIV21) were incubated for 5 h in EBSS containing 1 μg of a plasmid DNA plus Lipofectamine 2000 (Invitrogen, Carlsbad, Calif.). Transfection efficiency was normalized to β-galactosidase activity expressed by co-transfection with pSV-β-gal (Promega). For reporter gene assays, cells were transfected with 1 μg of the reporter construct [ARE(GSTYa)-luciferase] and 0.2 μg pSV-β-gal for 1 hour. The cells were then washed in PBS alone and incubated in the culture medium for another 24 h with or without CA. Firefly luciferase activity and β-galactosidase activity in cell lysates were measured using a Luciferase System and β-Galactosidase Enzyme Assay System, respectively (Promega, Madison, Wis.).
To confirm that CA activated the ARE in these cortical cultures, we performed luciferase reporter gene assays. […] CA accumulates both in neurons and in non-neuronal cells (FIG. 5).

Nrf2-GFP fusion protein = test: Localization of Nrf2-GFP fusion protein in transfected HT22 cells; assay type: cell-based; settings: NEPP11 2 μM, 24 h
Method: Activation of the Keap1/Nrf2 pathway by NEPP compounds in a neuronal cell line. Next, we examined the localization of an Nrf2-Green Fluorescent Protein (GFP) fusion protein (Numazawa et al., Am. J. Physiol. 285:C334-C342, 2003) in transfected HT22 cells. HT22 cells transfected with pNrf2-GFP were treated with vehicle or NEPP11 (2 μM) for 24 h and observed under epifluorescence microscopy. […] Thus we hypothesized that nuclear levels of Nrf2 protein should increase when cells are exposed to an electrophile such as NEPP, which promotes nuclear translocation. To test this hypothesis, cytosolic and nuclear fractions (200 μg protein) from cells that had been treated with vehicle or 2 μM NEPP11 for 24 h were precipitated and probed with anti-Nrf2 antibody and with anti-NeuN, a neuronal-specific nuclear protein. Indeed, we confirmed this hypothesis.

[2] = system: cAMP-responsive element (CRE); test: Enhancer element luciferase reporter p3xCREluc; assay type: cell-based; settings: NEPP11 2 μM
Method: Because the E1 and E2 regions also contain other enhancer elements, we tested the effects of NEPP11 (2 μM) on the expression of luciferase activity derived from these elements, including the cAMP-responsive element (CRE; p3xCREluc), AP-1 binding site (p3xAP1luc), NF-κB binding site (p3xNF-κBluc), NFAT-binding site (p3xNFATluc), ETS-binding site (p3xETSluc), and MEF2-binding site (p3xMEF2luc).

Structure (SMILES)	infarct area in coronal sections (MCAO/reperfusion injury; NEPP11 1 mg/kg i.p. 1 h before and 4 h after MCAO, 2 hr MCAO, 24 hr reperfusion)	expression of thioredoxin or glutaredoxin ([1]; NEPP11 1 μM)	expression of the Trx and Grx genes ([1]; NEPP11, 24 hr, RT-PCR)	number of apoptotic neurons (cerebrocortical neurons; NEPP11 0.7 μM 60 min before NMDA 50 μM 15 min, 20 h)	activity of the ARE core element (ARE; NEPP11 0.7 μM, 24 h)	localization of Nrf2-GFP (Nrf2-GFP fusion protein)	activity of p3xCREluc [2]	infarct volume, % of the ipsilateral hemisphere (MCAO/reperfusion injury; CA 1 mg/kg i.p. 1 h prior to MCAO, 2-h MCAO/24-h reperfusion, vehicle 51.2±2.4%) [%]	viability at 3 µM (cerebrocortical neurons; Rattus norvegicus, Cerebrocortical neuron, read-out: survival (viable cells) after NMDA) [%]	ARE activation with Nrf2-DN (ARE; 3 μM CA)	ARE-mediated transcription increase (ARE; 3 μM CA, E17 DIV21, 24 h) [fold]
COC(=O)CCCCC/C=C1/C(=O)C=C[C@H]1CCCCCCc1ccc(C)cc1 [NEPP11]	significantly reduced	did not significantly affect	did not significantly affect	significantly decreased	significantly increased	translocated into the nucleus	slightly depressed	–	–	–	–
CC(C)c1cc2c(c(O)c1O)[C@@]1(C(=O)O)CCCC(C)(C)[C@@H]1CC2 [CA, carnosic acid]	–	–	–	–	–	–	–	34.5±3.6	36 ± 2.3	abrogated by Nrf2-DN	2.3
